Reference: US20260210939A1, “MODIFIED OLFACTORY RECEPTORS” (GIVAUDAN SA, priority 2022, published 2026)
Like-named read-outs stand apart in the source and are kept apart here. Blank lines part the entries; values can stand above or below the molecule they belong to.

What was measured:
[1] = target: human class II OR identified in the library screening (Homo sapiens, UniProt Q9GZK7); assay: Confirmatory dose-response analysis of library-hit OR with cognate ligand, wild-type vs C-terminal domain SEQ ID NO: 221 (Table 17); conditions: read-out: Potency, EC50 changed C-term; OR11A1, modified C-terminus SEQ ID NO: 221 (SEQ ID NO: 702);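 note: Wild-type receptor sequences expressed from the pcDNA3.1(+) vector and compared with the C-terminally modified receptors in dose-response tests using each receptor's cognate ligand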
Target sequence in this assay (Q9GZK7 1-298): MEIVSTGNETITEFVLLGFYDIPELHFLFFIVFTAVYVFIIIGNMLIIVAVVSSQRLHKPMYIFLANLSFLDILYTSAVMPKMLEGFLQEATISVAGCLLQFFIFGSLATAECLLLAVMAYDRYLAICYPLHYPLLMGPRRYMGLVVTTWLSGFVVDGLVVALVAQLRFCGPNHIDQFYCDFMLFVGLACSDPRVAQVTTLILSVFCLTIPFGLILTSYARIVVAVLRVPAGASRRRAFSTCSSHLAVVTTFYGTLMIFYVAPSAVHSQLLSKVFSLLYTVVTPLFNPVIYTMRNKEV
Description: (§1) Selected ligand—OR pairs were then tested in a confirmatory test with a dose response analysis.
(§2) For selected receptors, the wild-type sequence was synthesized and cloned into pcDNA3.1 (+). Dose-response analysis with the cognate ligand was then performed for both the wild-type and the modified sequence.

[2] = target: human class II OR identified in the library screening (Homo sapiens, UniProt Q9GZK7); assay: as above
Target sequence in this assay (Q9GZK7 whole entry, the tested form may be a part): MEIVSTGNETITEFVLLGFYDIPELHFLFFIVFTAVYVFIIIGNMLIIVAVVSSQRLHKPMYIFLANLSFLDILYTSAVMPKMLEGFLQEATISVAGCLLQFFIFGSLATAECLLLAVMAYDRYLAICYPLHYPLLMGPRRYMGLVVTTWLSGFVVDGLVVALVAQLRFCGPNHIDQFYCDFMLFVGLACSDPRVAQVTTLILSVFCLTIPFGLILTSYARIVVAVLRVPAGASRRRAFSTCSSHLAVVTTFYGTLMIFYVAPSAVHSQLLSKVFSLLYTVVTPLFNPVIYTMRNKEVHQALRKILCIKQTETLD
Description: as §1, §2

[3] = target: human class II OR identified in the library screening (Homo sapiens, UniProt Q8NG80)
Target sequence in this assay (Q8NG80 whole entry, the tested form may be a part): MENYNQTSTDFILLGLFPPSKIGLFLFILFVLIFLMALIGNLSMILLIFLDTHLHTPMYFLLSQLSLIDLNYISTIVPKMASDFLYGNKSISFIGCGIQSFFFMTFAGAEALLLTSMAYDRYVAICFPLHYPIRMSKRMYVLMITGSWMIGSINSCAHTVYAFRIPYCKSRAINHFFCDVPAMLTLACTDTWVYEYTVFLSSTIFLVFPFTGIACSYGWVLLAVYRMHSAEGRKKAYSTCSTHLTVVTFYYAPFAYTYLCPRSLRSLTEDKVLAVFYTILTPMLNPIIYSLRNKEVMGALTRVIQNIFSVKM
Description: as §1, §2

[4] = target: human class II OR identified in the library screening (Homo sapiens, UniProt Q8NG85)
Target sequence in this assay (Q8NG85 whole entry, the tested form may be a part): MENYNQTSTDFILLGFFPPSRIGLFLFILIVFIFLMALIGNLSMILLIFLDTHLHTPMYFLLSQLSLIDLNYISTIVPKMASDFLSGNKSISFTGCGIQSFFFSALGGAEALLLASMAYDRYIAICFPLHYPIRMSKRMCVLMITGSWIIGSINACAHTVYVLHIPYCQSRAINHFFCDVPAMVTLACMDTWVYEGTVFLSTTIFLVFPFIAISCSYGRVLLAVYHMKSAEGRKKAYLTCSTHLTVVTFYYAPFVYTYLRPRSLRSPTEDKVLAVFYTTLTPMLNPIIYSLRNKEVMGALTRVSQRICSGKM
Description: as §1, §2

[5] = target: human class II OR identified in the library screening (Homo sapiens, UniProt Q8NG80); assay: Confirmatory dose-response analysis of library-hit OR with cognate ligand, wild-type vs C-terminal domain SEQ ID NO: 221 (Table 17); conditions: read-out: Potency, EC50 changed C-term; OR2L5, modified C-terminus SEQ ID NO: 221 (SEQ ID NO: 413);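 note: Wild-type receptor sequences expressed from the pcDNA3.1(+) vector and compared with the C-terminally modified receptors in dose-response tests using each receptor's cognate ligand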
Target sequence in this assay (Q8NG80 1-296): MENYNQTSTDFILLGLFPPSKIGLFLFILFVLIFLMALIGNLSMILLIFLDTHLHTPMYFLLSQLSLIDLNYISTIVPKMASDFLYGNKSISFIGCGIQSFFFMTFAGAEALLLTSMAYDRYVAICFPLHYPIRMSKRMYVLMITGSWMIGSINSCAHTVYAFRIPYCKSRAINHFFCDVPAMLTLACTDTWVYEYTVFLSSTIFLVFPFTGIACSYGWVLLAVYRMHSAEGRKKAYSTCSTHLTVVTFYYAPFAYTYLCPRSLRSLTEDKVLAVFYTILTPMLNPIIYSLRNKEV
Description: as §1, §2

[6] = target: human class II OR identified in the library screening (Homo sapiens, UniProt Q8NG85); assay: as above; conditions: read-out: Potency, EC50 changed C-term; OR2L3, modified C-terminus SEQ ID NO: 221 (SEQ ID NO: 412)
Target sequence in this assay (Q8NG85 1-296): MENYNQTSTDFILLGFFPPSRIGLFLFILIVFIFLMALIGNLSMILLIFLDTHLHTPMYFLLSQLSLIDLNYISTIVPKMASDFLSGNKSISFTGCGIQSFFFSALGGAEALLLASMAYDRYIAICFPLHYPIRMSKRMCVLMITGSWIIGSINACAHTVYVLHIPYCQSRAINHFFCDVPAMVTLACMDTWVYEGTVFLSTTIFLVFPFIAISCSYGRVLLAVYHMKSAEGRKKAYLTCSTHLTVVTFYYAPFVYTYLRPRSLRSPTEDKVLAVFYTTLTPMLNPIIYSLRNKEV
Description: as §1, §2

[7] = tested on: human class II OR identified in the library screening; assay: as above; conditions: for Fold improvement efficacy: maximal induction; for Detection threshold; Fold improvement efficacy: under detection threshold; for EC50: read-out: Potency, EC50 changed C-term
Description: as §1, §2

[8] = target: human class II OR identified in the library screening (Homo sapiens, UniProt Q8NGN4); assay: as above; conditions: OR10G9, wild-type sequence
Description: as §1, §2

[9] = target: human class II OR identified in the library screening (Homo sapiens, UniProt Q8NGG4)
Description: as §1, §2

[10] = tested on: human class II OR identified in the library screening
Description: as §1, §2

[11] = target: human class II OR identified in the library screening (Homo sapiens, UniProt Q8NGX5)
Target sequence in this assay (Q8NGX5 whole entry, the tested form may be a part): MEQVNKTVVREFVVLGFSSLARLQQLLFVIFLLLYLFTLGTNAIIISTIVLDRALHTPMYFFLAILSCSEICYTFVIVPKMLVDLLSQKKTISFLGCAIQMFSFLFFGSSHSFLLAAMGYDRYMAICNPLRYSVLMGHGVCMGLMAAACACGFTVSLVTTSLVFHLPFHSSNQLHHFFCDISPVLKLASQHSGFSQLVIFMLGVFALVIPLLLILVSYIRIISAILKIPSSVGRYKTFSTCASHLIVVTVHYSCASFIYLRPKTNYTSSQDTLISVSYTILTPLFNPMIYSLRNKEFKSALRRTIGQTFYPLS
Description: as §1, §2

[12] = target: human class II OR identified in the library screening (Homo sapiens, UniProt Q9Y4A9)
Target sequence in this assay (Q9Y4A9 whole entry, the tested form may be a part): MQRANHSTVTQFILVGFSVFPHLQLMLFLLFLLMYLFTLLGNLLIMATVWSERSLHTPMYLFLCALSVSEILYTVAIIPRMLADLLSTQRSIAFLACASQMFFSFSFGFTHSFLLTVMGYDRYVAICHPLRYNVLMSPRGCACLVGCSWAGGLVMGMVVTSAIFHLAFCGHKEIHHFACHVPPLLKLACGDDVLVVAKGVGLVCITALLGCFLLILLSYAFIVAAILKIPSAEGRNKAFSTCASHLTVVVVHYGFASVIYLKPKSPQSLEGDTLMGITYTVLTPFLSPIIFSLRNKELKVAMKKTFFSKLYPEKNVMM
Description: as §1, §2

[13] = target: human class II OR identified in the library screening (Homo sapiens, UniProt Q8NGX5); assay: Confirmatory dose-response analysis of library-hit OR with cognate ligand, wild-type vs C-terminal domain SEQ ID NO: 221 (Table 17); conditions: read-out: Potency, EC50 changed C-term; OR10K1, modified C-terminus SEQ ID NO: 221 (SEQ ID NO: 687);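 note: Wild-type receptor sequences expressed from the pcDNA3.1(+) vector and compared with the C-terminally modified receptors in dose-response tests using each receptor's cognate ligand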
Target sequence in this assay (Q8NGX5 1-292): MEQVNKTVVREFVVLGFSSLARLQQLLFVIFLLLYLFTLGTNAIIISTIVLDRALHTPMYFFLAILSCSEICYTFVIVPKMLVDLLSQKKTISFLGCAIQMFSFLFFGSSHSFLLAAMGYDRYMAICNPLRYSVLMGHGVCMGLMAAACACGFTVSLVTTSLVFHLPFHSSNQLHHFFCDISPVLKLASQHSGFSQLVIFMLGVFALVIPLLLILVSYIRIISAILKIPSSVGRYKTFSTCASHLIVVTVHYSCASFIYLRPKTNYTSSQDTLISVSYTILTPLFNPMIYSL
Description: as §1, §2

[14] = target: human class II OR identified in the library screening (Homo sapiens, UniProt Q9Y4A9); assay: as above; conditions: read-out: Potency, EC50 changed C-term; OR10H1, modified C-terminus SEQ ID NO: 221 (SEQ ID NO: 679)
Target sequence in this assay (Q9Y4A9 1-297): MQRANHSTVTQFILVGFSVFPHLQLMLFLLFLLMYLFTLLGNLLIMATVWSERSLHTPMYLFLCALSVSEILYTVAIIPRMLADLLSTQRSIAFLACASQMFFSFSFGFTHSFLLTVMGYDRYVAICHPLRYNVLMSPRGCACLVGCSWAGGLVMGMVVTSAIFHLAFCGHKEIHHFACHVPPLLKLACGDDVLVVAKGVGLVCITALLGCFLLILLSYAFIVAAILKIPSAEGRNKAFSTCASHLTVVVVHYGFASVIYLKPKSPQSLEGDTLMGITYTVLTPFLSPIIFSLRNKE
Description: as §1, §2

[15] = OR2L5, modified C-terminus SEQ ID NO: 221 vs wild-type
[16] = OR10G9, modified C-terminus SEQ ID NO: 221 (SEQ ID NO: 678)
[17] = OR10G9, modified C-terminus SEQ ID NO: 221 vs wild-type
[18] = OR8H1, modified C-terminus SEQ ID NO: 221 vs wild-type
[19] = OR10K1, modified C-terminus SEQ ID NO: 221 vs wild-type

Chain of human class II OR identified in the library screening (Homo sapiens, UniProt Q8NGN4) (Q8NGN4 whole entry): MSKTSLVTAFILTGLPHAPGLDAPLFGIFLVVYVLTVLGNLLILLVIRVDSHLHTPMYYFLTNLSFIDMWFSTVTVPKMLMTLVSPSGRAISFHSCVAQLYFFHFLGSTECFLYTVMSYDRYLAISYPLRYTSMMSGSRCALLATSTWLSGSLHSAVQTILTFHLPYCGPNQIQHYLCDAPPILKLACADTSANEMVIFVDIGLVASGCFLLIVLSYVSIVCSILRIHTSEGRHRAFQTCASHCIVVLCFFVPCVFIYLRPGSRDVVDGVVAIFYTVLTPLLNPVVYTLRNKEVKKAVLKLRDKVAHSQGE
Chain of human class II OR identified in the library screening (Homo sapiens, UniProt Q8NGG4) (Q8NGG4 whole entry): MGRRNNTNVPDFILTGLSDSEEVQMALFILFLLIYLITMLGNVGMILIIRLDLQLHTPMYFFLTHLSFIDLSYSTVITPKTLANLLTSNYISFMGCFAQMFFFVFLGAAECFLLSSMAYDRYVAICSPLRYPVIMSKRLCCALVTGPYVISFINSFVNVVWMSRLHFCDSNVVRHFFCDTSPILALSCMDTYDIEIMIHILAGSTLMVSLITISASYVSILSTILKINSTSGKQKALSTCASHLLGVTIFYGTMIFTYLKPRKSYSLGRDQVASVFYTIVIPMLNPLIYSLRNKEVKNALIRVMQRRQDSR

SMILES: CC1CCCC2(C)CCCCC12O (stereo not drawn) [Geosmin]
EC50 [1]: 2200 nM | EC50 [2]: 6.8 µM

Detection threshold; concentration for 2-fold induction, wild-type [3]: 40.5 µM | Detection threshold; concentration for 2-fold induction, wild-type [4]: no | EC50 [5]: 4.76 µM | EC50 [6]: 86.2 µM
SMILES: CCOC(=O)C1CCCCC1 [Ethyl cyclohexanecarboxylate]
Fold improvement efficacy ([7]; OR2L3, modified C-terminus SEQ ID NO: 221 vs wild-type): 17.1 fold | Potency, Fold-improvement ([7]; OR2L5, EC50 modified C-terminus SEQ ID NO: 221 vs wild-type): 24.1 fold | Fold improvement efficacy [7, 15]: 2.6 fold | Detection threshold; Fold improvement efficacy [7, 15]: 158.8 fold

SMILES: CCOc1cc(C)ccc1O [Ultravanil]
Detection threshold; concentration for 2-fold induction, wild-type [8]: 14.6 µM | Potency, Fold-improvement ([7]; OR10G9, EC50 modified C-terminus SEQ ID NO: 221 vs wild-type): 4.8 fold | Detection threshold; concentration for 2-fold induction, changed C-term. [7, 16]: 1.7 µM | Fold improvement efficacy [7, 17]: 3.4 fold | Detection threshold; Fold improvement efficacy [7, 17]: 8.62 fold | EC50 [7, 16]: 19 µM

Detection threshold; concentration for 2-fold induction, wild-type [9]: 6.9 µM | Detection threshold; concentration for 2-fold induction, changed C-term. [10]: 0.4 µM | EC50 ([7]; OR8H1, modified C-terminus SEQ ID NO: 221 (SEQ ID NO: 637)): 5.8 µM
SMILES: N#CC(=C1CCCCC1)c1ccccc1 [Peonile]
Potency, Fold-improvement ([7]; OR8H1, EC50 modified C-terminus SEQ ID NO: 221 vs wild-type): 2.95 fold | Fold improvement efficacy [7, 18]: 4.2 fold | Detection threshold; Fold improvement efficacy [7, 18]: 15.6 fold

Detection threshold; concentration for 2-fold induction, wild-type [11]: 9.4 µM | Detection threshold; concentration for 2-fold induction, wild-type [12]: no | EC50 [13]: 2200 nM | EC50 [14]: 7 µM
SMILES: CC(C)CCc1ccc2c(c1)OCC(=O)CO2 [7-(3-Methylbutyl)-benzo[b][1,4]dioxepin-3-one]
Fold improvement efficacy ([7]; OR10H1, modified C-terminus SEQ ID NO: 221 vs wild-type): 10.0 fold | Potency, Fold-improvement ([7]; OR10K1, EC50 modified C-terminus SEQ ID NO: 221 vs wild-type): 3.1 fold | Fold improvement efficacy [7, 19]: 12.4 fold | Detection threshold; Fold improvement efficacy [7, 19]: 63.4 fold
